Reference: article PMC12828148, “Engineered cyclic peptide targeting ITGA5 disrupts tumor–stroma interaction to overcome desmoplasia and resistance in pancreatic ductal adenocarcinoma” (Acta Pharmaceutica Sinica. B, 2025)
Peptide text beside a SMILES is read from it.

Experiments:
[1] = biological target: T1, human integrin α5β1 (Homo sapiens, UniProt P05556+P08648); test: ITGA5 competition study (α5β1 binding to FN-coated plate, ELISA); conditions: human recombinant α5β1 on FN-coated plate, increasing peptide concentrations
T1 construct: purchased RnD (printed for the alanine-replacement peptide array, not for the ELISA itself)
Procedure: To examine the affinity of the peptide to the target ITGA5, a 96 well MaxiSorp™ (Thermo Scientific) was coated with 100 μL FN (Advanced Biomatrix) at 1 μg/mL by overnight incubation at 4 °C. Next, the plate was washed with DPBS (Lonza) and blocked with 5% bovine serum albumin (BSA) in DPBS for at least 1 h at RT. In the meantime, mentioned concentrations of the peptides were mixed with 2 μg/mL human integrin α5β1 in DPBS with Mg^2+ and Ca^2+. The mixture was then set to rest for 30 min at RT. After blocking with 5% BSA, the plate was washed with DPBS. The mixture of integrin α5β1 and peptide was transferred to a well plate and incubated for 1 h at RT. Next, the plate was washed three times with PBS with 0.1% Tween 20 (PBS-T) and then mouse anti-human CD49e (RnD Systems) was added. After 1 h of incubation, plate was washed and the secondary peroxidase labeled antibody was added and incubated for 1 h at RT. After washing with PBS-T, the plate was quickly developed with 3,3′,5,5′-tetramethylbenzidine (TMB) (50 μL per well) and incubated for 5 min at RT in the dark. The reaction was stopped with 3 mol/L H2SO4 (50 μL per well) and the absorbance was measured at 450 nm with plate reader (Tecan).

[2] = test system: PANC-1 + PSC and MIA PaCa-2 + PSC co-injection xenograft tumors
Procedure: Six-week-old male CB17 SCID mice (Janvier Labs, Le Genest-Saint-Isle, France) were subcutaneously injected with a 2:1 mixture of 4 × 10^6 human PSCs and 2 × 10^6 PANC-1 or MIA PaCa-2 cells. Tumor growth was assessed twice a week. Tumor-bearing mice (±100 mm^3) were treated with phosphate buffered saline (PBS), cyAV3.3, gemcitabine, or combination of gemcitabine and cyAV3.3 intraperitoneally (i.p). Animals were euthanized, tumors and other organs were harvested and embedded in Cryomatrix (Thermo Scientific) before being snap frozen in cold 2-methyl butane (Thermo Scientific) and stored at −80 °C until analyses. […]
Immunohistochemical staining of mouse tumors
Tumors were cut into 7 μm thick sections and mounted on glass slides using Cryotome FSE (Thermo Scientific), dried, and fixed in acetone for 15 min. Tumor sections were rehydrated in PBS for 10 min then incubated with primary antibody diluted in PBS for 1 hour at RT. Antibodies […]
Next, slides were washed 3 times with PBS before incubation with secondary fluorescence-labeled antibody diluted in PBS. After 30 min of incubation, slides were washed with PBS and shielded with a DAPI -containing mounting medium. Images were made using a Hamamatsu NanoZoomer Digital slide scanner 2.0HT (Hamamatsu Photonics, New Jersey, […]

[3] = test system: TGF-β treated PSCs; test: Cell adhesion competition study (PSC attachment to FN-coated plate, crystal violet); type: cell-based, human; conditions: 50 μmol/L peptide, 30 min pre-incubation 37 °C, 1 h attachment, crystal violet absorbance 600 nm, n = 3
Procedure: To analyze the interaction of PSC and FN, a 96 suspension well plate was coated with 100 μL FN (Advanced Biomatrix, Carlsbad, CA, USA) at 1 μg/mL by overnight incubation at 4 °C. Next, the plate was washed with DPBS (Lonza) and blocked with 5% bovine serum albumin (BSA) in DPBS for at least 1 h at RT. In the meantime, a cell suspension of 200,000 cells/mL of TGF-β treated PSCs in DPBS with 2 mmol/L Ca^2+ and 2 mmol/L Mg^2+ was treated with 50 μmol/L AV3.3 or cyAV3.3 and incubated for 30 min at 37 °C. After washing the plate with DPBS, 100 μL cell suspension was added to each well and then set to rest for 1 h at RT. The plate was then washed with DPBS to remove unattached cells. […] Next, cells were stained with 0.1% (w/v) crystal violet (Sigma) in 25% methanol at RT. After 20 min, cells were washed with water and lysed with 0.5% (w/v) SDS. The degree of cell attachment was measured by the absorbance of the crystal violet at 600 nm using Tecan Infinite M200 plate reader (Tecan, Mannendorf, Switzerland). In other plate, cells were washed with DPBS after fixation and then stained with DAPI. Images were developed using EVOS fluorescence microscope (Thermo Scientific).

[4] = test system: PANC-1 homospheroids / PANC-1 + PSC heterospheroids; test: Gene expression in 3D PANC-1 homospheroids and PANC-1 + PSC heterospheroids (qPCR); type: cell-based, human; conditions: treated Days 3 and 6, qPCR Day 7, n = 3

Question: Which “blocking of FN-α5β1 interaction, cyclic versus linear” value [1] does the source give for `C[C@@H]1NC(=O)[C@H](CCCNC(=N)N)NC(=O)[C@H](Cc2ccc(O)cc2)NC(=O)[C@H](Cc2ccc(O)cc2)NC(=O)[C@H](CCCNC(=N)N)NC(=O)CNC(=O)[C@H](CCCCN)NC(=O)[C@H](Cc2ccc(O)cc2)NC(=O)[C@H]([C@@H](C)O)NC1=O` [cyAV3.3] (cyclo(ATYKGRYYR)) here?
Answer: blocked the interaction significantly stronger than AV3.3

Question: And the “reduction of tumor size / tumor growth” value ([2]; PANC-1 + PSC and MIA PaCa-2 + PSC co-injection xenografts, i.p. treatment, n = 4 per group per tumor type)?
Answer: ~30%

Question: And the “signs of toxicity (body mass, organ mass)” value ([2]; co-injection xenograft mice, i.p. treatment)?
Answer: did not show any obvious signs of toxicity

Question: And the “tumor blood vessel (CD31+) lumen diameter” value ([2]; immunofluorescence, co-injection xenograft tumors)?
Answer: larger lumen diameter compared to the control tumors

Question: What about the “blocking of the binding of PSC to FN” value [3] of the same molecule?
Answer: blocked the binding of PSC to FN significantly higher than AV3.3

Question: And the “gene expression levels related to resistance, stemness and ECM in heterospheroids” value ([4]; PANC-1 + PSC heterospheroids)?
Answer: significantly reduced

Question: And the “gene expression in homospheroids” value ([4]; PANC-1 homospheroids)?
Answer: some genes including ABCG1, KRAS, MMP2, MMP9 were inhibited
